{"source": "the supplement of paper PMC10307832", "test_in_all_cases": "relative viability (nuclei count vs DMSO), 5 days (fraction); higher = more cells survive", "key": {"Veliparib + Linsitinib": {"compound": "C[C@]1(c2nc3c(C(N)=O)cccc3[nH]2)CCCN1 [Veliparib] + C[C@]1(O)C[C@@H](c2nc(-c3ccc4ccc(-c5ccccc5)nc4c3)c3c(N)nccn32)C1 [Linsitinib] (partner 1 µM)", "procedure,_shortened": "(§1)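 One day after seeding in 1536-well plates, lung cancer cell lines were dosed by pin tool. Dosing was either single-drug or a fixed anchor-drug dose plus five library-drug doses (not always all listed) in √10 steps. After 5 days, nuclei were stained in one fix-and-stain step and counted on 4× images, and relative viability is the nuclei count of treated wells over that of vehicle wells, given as the median of duplicate plates.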"}, "[1]": {"compound": "COC1=CC=C(C=C1)CN2C=CC3=C2C=C(C=C3)C(=O)NO + N=C(N)NC(=N)NCCc1ccccc1 [Phenformin] (partner 250 µM)", "procedure,_shortened": "as §1"}, "[2]": {"compound": "COC1=CC=C(C=C1)CN2C=CC3=C2C=C(C=C3)C(=O)NO + Nc1nc2[nH]cc(CCc3ccc(C(=O)N[C@@H](CCC(=O)O)C(=O)O)cc3)c2c(=O)[nH]1 [Pemetrexed] (partner 0.2 µM)", "procedure,_shortened": "as §1"}, "[3]": {"compound": "COC1=CC=C(C=C1)CN2C=CC3=C2C=C(C=C3)C(=O)NO + Nc1ncn([C@H]2C[C@H](O)[C@@H](CO)O2)c(=O)n1 [Decitabine] (partner 2 µM)", "procedure,_shortened": "as §1"}}}
{"cell line": "SW 1573", "values": [{"measurement": "relative viability", "setting": "Veliparib + Linsitinib; first compound 0.02 µM", "value": 0.977}, {"measurement": "relative viability", "setting": "Veliparib + Linsitinib; first compound 0.06325 µM", "value": 0.845}, {"measurement": "relative viability", "setting": "Veliparib + Linsitinib; first compound 0.2 µM", "value": 0.819}, {"measurement": "relative viability", "setting": "Veliparib + Linsitinib; first compound 0.6325 µM", "value": 0.767}, {"measurement": "relative viability", "setting": "Veliparib + Linsitinib; first compound 2 µM", "value": 0.79}, {"measurement": "relative viability", "setting": "[1]; first compound 0.253 µM", "value": 0.368}, {"measurement": "relative viability", "setting": "[1]; first compound 0.8 µM", "value": 0.426}, {"measurement": "relative viability", "setting": "[1]; first compound 2.53 µM", "value": 0.379}, {"measurement": "relative viability", "setting": "[1]; first compound 8 µM", "value": 0.331}, {"measurement": "relative viability", "setting": "[2]; first compound 0.253 µM", "value": 0.906}, {"measurement": "relative viability", "setting": "[2]; first compound 0.8 µM", "value": 0.82}, {"measurement": "relative viability", "setting": "[2]; first compound 2.53 µM", "value": 0.853}, {"measurement": "relative viability", "setting": "[2]; first compound 8 µM", "value": 0.803}, {"measurement": "relative viability", "setting": "[3]; first compound 0.253 µM", "value": 0.525}, {"measurement": "relative viability", "setting": "[3]; first compound 0.8 µM", "value": 0.59}, {"measurement": "relative viability", "setting": "[3]; first compound 2.53 µM", "value": 0.471}, {"measurement": "relative viability", "setting": "[3]; first compound 8 µM", "value": 0.258}]}
